# Assay: in vitro
# Conditions: human, hela cells, % viability
row,SMILES,"viability at 28.5 h, 10 µM"
1,O=C(O)CC1SC(Nc2cc(C(F)(F)F)cc(C(F)(F)F)c2)=NC1=O (stereo not drawn) [CBK059095],89.8%
2,O=C(O)CC1SC(Nc2ccccc2F)=NC1=O (stereo not drawn) [CBK059096],94.9%
3,CCNC(=S)N1CC[C@@H]2N(C)CC[C@]2(c2ccc(OC)c(OC)c2)CC1 [CBK059113T],88.5%
4,COc1ccc2c(c1)C(C)CC(C)(C)N2C(=O)CSc1nnc(-c2ccco2)n1C (stereo not drawn) [CBK059169],102%
5,C=CCn1c(SCC(=O)N2c3ccccc3C(C)(c3ccccc3)CC2(C)C)nnc1-c1ccncc1 (stereo not drawn) [CBK059171],83.3%
6,CCCn1c(SCC(=O)N2c3ccc(F)cc3CCC2C)nnc1-c1cccnc1 (stereo not drawn) [CBK059187],94%
7,CS(=O)(=O)Nc1ccc(N2CCNCC2)c2ccccc12 [CBK059355C],79.3%
8,O=C([C@@H]1Cc2c([nH]c3ccccc23)C2(CCN(Cc3ccccc3)C2)N1)N1CCOCC1 (stereo partly drawn) [CBK059363T],97.3%
9,Cc1cc(F)c(S(N)(=O)=O)cc1NC(=O)c1ccc(CN2CCOCC2)o1 [CBK059376C],97.7%
10,CCS(=O)(=O)Nc1cc(N2CCNCC2)c2occc2c1 [CBK059429C],118%
11,CCc1cccc(CC)c1NC(=O)CC1SC(NCc2ccc(C)cc2)=NC1=O (stereo not drawn) [CBK059431],118%
12,O=C(Cc1ccc(Cl)cc1)N1CCc2c([nH]c3ccccc23)C12CCN(Cc1ccc(F)cc1)C2 (stereo not drawn) [CBK059453],90.6%
13,CC(C)CC(=O)N1CCc2c([nH]c3ccccc23)C12CCN(Cc1ccccc1)C2 (stereo not drawn) [CBK059459],81.6%
14,CS(=O)(=O)N1CCc2c([nH]c3ccccc23)C12CCN(Cc1ccccc1)C2 (stereo not drawn) [CBK059460],102%
15,COc1cc(NC(=O)CC2SC(NC3CCCCC3)=NC2=O)c(OC)cc1Cl (stereo not drawn) [CBK059497],96.2%
16,Cc1ccc(NC(=O)CC2SC(NC3CCCCC3)=NC2=O)c(C)c1 (stereo not drawn) [CBK059500],87.9%
17,O=C(CC1SC(NC2CCCCC2)=NC1=O)Nc1cc(Cl)ccc1Cl (stereo not drawn) [CBK059501],91%
18,C[C@@H]1[C@H]2C[C@@H](C[C@H]1NC1=NC(=O)C(CC(=O)O)S1)C2(C)C (stereo partly drawn) [CBK059514],93.8%
19,COc1ccc(N(C)C(=O)c2ccc(Cn3nc(NC(=O)Cc4ccc5c(c4)OCO5)c4ccccc43)cc2)cc1 [CBK059530],103%
20,Cc1ccnc2c1C(=O)C1(CC2)CCN(C(=O)Nc2ccc(F)cc2F)CC1 [CBK059553T],91.3%

row,SMILES,"viability at 28.5 h, 10 µM"
1,O=C(NC(c1ccc(Cl)cc1)c1cnccn1)C1CCN(C(=O)c2ccccc2)CC1 (stereo not drawn) [CBK059634],109%
2,COc1ccccc1C(NC(=O)C1CCN(C(=O)c2cccc(Cl)c2)CC1)c1ccccn1 (stereo not drawn) [CBK059637],90.3%
3,CC(C)OC(=O)N1CCC(C(=O)NC(c2ccccc2)c2ccc3ccccc3n2)CC1 (stereo not drawn) [CBK059642],106%
4,COc1cc(OC)nc(C(NC(=O)C2CCN(C(=O)c3ccccc3)CC2)c2ccccc2)n1 (stereo not drawn) [CBK059650],99.7%
5,COC(=O)N1CCC(C(=O)NC(c2ccccc2)c2nc(OC)cc(OC)n2)CC1 (stereo not drawn) [CBK059651],90.6%
6,CC(C)S(=O)(=O)N1CCC(C(=O)NC(c2ccccc2)c2ccc3ccccc3n2)CC1 (stereo not drawn) [CBK059676],94.1%
7,O=C(NC(c1ccc(Cl)cc1)c1cccnc1)C1CCN(C(=O)C2CC2)CC1 (stereo not drawn) [CBK059686],90.4%
8,C=CCOC(=O)N1CCC(C(=O)NC(c2ccccn2)c2ccccc2C)CC1 (stereo not drawn) [CBK059689],94%
9,CS(=O)(=O)N1CCC(C(=O)NC(c2ccc(F)cc2)c2ccccn2)CC1 (stereo not drawn) [CBK059696],94.9%
10,Cc1ccccc1C(NC(=O)C1CCN(S(=O)(=O)C(C)C)CC1)c1ccccn1 (stereo not drawn) [CBK059711],104%
11,Cc1ccccc1C(NC(=O)C1CCN(C(=O)c2ccccc2)CC1)c1ccccn1 (stereo not drawn) [CBK059720],94.5%
12,Cc1ccccc1C(NC(=O)C1CCN(C(=O)N(C)c2ccccc2)CC1)c1ccccn1 (stereo not drawn) [CBK059721],88.7%
13,COc1ccc(C(NC(=O)C2CCN(C(=O)OCc3ccccc3)CC2)c2ccccc2C)cn1 (stereo not drawn) [CBK059726],91.4%
14,COc1ccc(C(NC(=O)C2CCN(S(C)(=O)=O)CC2)c2ccccc2C)cn1 (stereo not drawn) [CBK059738],104%
15,O=C(NC(c1ccccc1)c1ccco1)C1CCN(C(=O)c2cccs2)CC1 (stereo not drawn) [CBK059854],82.4%
16,COC(=O)N1CCC(C(=O)NC(c2ccccc2)c2ncccc2C)CC1 (stereo not drawn) [CBK059885],92.6%
17,O=C(NC(c1ccc(F)cc1)c1cnccn1)C1CCN(C(=O)c2ccco2)CC1 (stereo not drawn) [CBK059956],94.3%
18,O=C(NC(c1ccc(F)cc1)c1cnccn1)C1CCN(S(=O)(=O)c2cccc(Cl)c2)CC1 (stereo not drawn) [CBK060013],85.1%
19,CC(C)(C)C(=O)N1CCC(C(=O)NC(c2ccc3c(c2)OCO3)c2ccccn2)CC1 (stereo not drawn) [CBK060074],110%
20,O=C(NC(c1ccc(Cl)cc1)c1ccsc1)C1CCN(S(=O)(=O)CC(F)(F)F)CC1 (stereo not drawn) [CBK060088],89.1%

row,SMILES,"viability at 28.5 h, 10 µM"
1,O=C(NC(c1ccccc1)c1ccccn1)C1CCN(C(=O)Oc2ccccc2)CC1 (stereo not drawn) [CBK060105],96.9%
2,CC(=O)N1CCC(C(=O)N2CCC(C(=O)NC(c3ccccn3)c3cccs3)CC2)CC1 (stereo not drawn) [CBK060118],95%
3,Cn1cnc(S(=O)(=O)N2CCC(C(=O)NC(c3ccccn3)c3cccs3)CC2)c1 (stereo not drawn) [CBK060131],105%
4,Cc1ccc(C(=O)N2CCC(C(=O)NC(c3ccccc3)c3ccsc3)CC2)cc1 (stereo not drawn) [CBK060154],109%
5,COCCOC(=O)N1CCC(C(=O)NC(c2ccccc2)c2ccsc2)CC1 (stereo not drawn) [CBK060155],94.4%
6,COc1cc(OC)nc(C(NC(=O)C2CCN(C(=O)c3ccno3)CC2)c2ccc(Cl)cc2)n1 (stereo not drawn) [CBK060169],115%
7,CN(C(=O)C1CCN(C(=O)c2ccoc2)CC1)C(c1ccc(F)cc1)c1ccccn1 (stereo not drawn) [CBK060206],91.5%
8,Cc1ccccc1C(c1cnccn1)N(C)C(=O)C1CCN(C(=O)c2ccccc2)CC1 (stereo not drawn) [CBK060208],94.4%
9,COc1cccc(C(c2ccccn2)N(C)C(=O)C2CCN(S(=O)(=O)c3c(C)noc3C)CC2)c1 (stereo not drawn) [CBK060212],96.4%
10,Cc1ccc(S(=O)(=O)N2CCC(C(=O)NC(c3ccccc3C)c3ncccc3C)CC2)cc1 (stereo not drawn) [CBK060249],94.3%
11,COc1ccc(C(c2ccccn2)N(C)C(=O)C2CCN(S(=O)(=O)C(C)C)CC2)cc1 (stereo not drawn) [CBK060280],88.2%
12,COc1ccc(C(NC(=O)C2CCN(C(=O)NC(C)(C)C)CC2)c2ccccn2)cc1 (stereo not drawn) [CBK060298],112%
13,O=C(NC(c1ccccc1)c1cccnc1)C1CCN(C(=O)NCCc2cccs2)CC1 (stereo not drawn) [CBK060313],78.3%
14,O=C(NC(c1ccccc1)c1cccnc1)C1CCN(C(=O)NC2CCCCC2)CC1 (stereo not drawn) [CBK060378],84%
15,Cc1ccccc1C(NC(=O)C1CCN(C(=O)NCc2ccccc2)CC1)c1ncccc1C (stereo not drawn) [CBK060398],94.9%
16,O=C(NC(c1ccccc1)c1ccco1)C1CCN(C(=S)NCCc2ccccc2)CC1 (stereo not drawn) [CBK060412],94.4%
17,CN(C(=O)C1CCN(C(=S)NCc2ccccc2)CC1)C(c1ccccc1)c1ccccn1 (stereo not drawn) [CBK060476],91.7%
18,Cn1c(=O)n(CC(=O)N2CCC(C(=O)NC(c3ccccc3)c3ccccn3)CC2)c2ccccc21 (stereo not drawn) [CBK060494],96%
19,Cc1cccnc1C(c1ccccc1)N(C)C(=O)C1CCN(C(=O)OCc2ccccc2)CC1 (stereo not drawn) [CBK060522],93.9%

# Same assay, conditions: human, hela cells, % viability, bulk resorufin, single well
row,SMILES,"viability at 28.5 h, 10 µM"
1,COc1ccccc1NC(=O)N1CCC2(CC1)OCc1cc(-c3ccccc3)ccc1O2 [CBK060599],109%
2,Cc1noc(C)c1NC(=O)N1CCC2(CC1)OCc1cc(F)ccc1O2 [CBK060721],97.8%
3,O=C(Nc1cccc(Cl)c1)N1CCC2(CC1)OCc1cc(F)ccc1O2 [CBK060722],87.5%
4,CCNC(=O)N1CCC2(CC1)OCc1cc(-c3ccc(Cl)cc3)ccc1O2 [CBK060737],90.1%
5,COc1ccc2c(c1)COC1(CCN(C(=O)NC3CCCCC3)CC1)O2 [CBK060755],111%
6,O=C(NCCc1cccs1)N1CCC2(CC1)OCc1cc(F)ccc1O2 [CBK060769],98.3%
7,CSc1cc(C)c2c(c1)COC1(CCN(C(=O)Nc3cccs3)CC1)O2 [CBK060795],90.6%
8,COc1ccc2c(c1)COC1(CCN(C(=O)Nc3cccs3)CC1)O2 [CBK060803],105%
9,CSc1cc(C)c2c(c1)COC1(CCN(C(=O)COCC(=O)O)CC1)O2 [CBK060839],94.1%
10,CSc1cc(C)c2c(c1)COC1(CCN(C(=O)c3ccccc3C(=O)O)CC1)O2 [CBK060843],94.1%
11,COc1ccc2c(c1)COC1(CCN(C(=O)CC(C)(C)CC(=O)O)CC1)O2 [CBK060855],90.3%
12,O=C(O)COCC(=O)N1CCC2(CC1)OCc1cc(F)ccc1O2 [CBK060859],106%
13,O=C(O)c1ccccc1C(=O)N1CCC2(CC1)OCc1cc(F)ccc1O2 [CBK060863],109%
14,Cc1ccc(-c2ccc3c(c2)COC2(CCNCC2)O3)c(C)c1 [CBK060881],89.7%
15,CC(=O)N1CCC2(CC1)OCc1cc(-c3ccc(C)o3)ccc1O2 [CBK060889],87.1%
16,Fc1cc(F)cc(-c2ccc3c(c2)COC2(CCNCC2)O3)c1 [CBK060915],87.7%
17,c1cc2c(cc1-c1ccc3c(c1)COC1(CCNCC1)O3)CCO2 [CBK060920],108%
18,c1cc2c(cc1-c1ccc3c(c1)OCO3)COC1(CCNCC1)O2 [CBK060925],95.9%
19,c1ccc2c(-c3ccc4c(c3)COC3(CCNCC3)O4)cccc2c1 [CBK060951],92.5%
20,CC(=O)c1ccc(-c2ccc3c(c2)COC2(CCN(C(C)=O)CC2)O3)s1 [CBK060967],109%
21,CC(=O)N1CCC2(CC1)OCc1cc(-c3cccc4cccnc34)ccc1O2 [CBK060969],88.4%
22,CC(=O)N1CCC2(CC1)OCc1cc(-c3ccc(Cl)cc3)ccc1O2 [CBK060974],113%

# From paper PMC12040169 (PLOS Biology, 2025)
